{
  "source": "paper PMC6018617",
  "about": "“Probing GABAA receptors with inhibitory neurosteroids” (Neuropharmacology, 2018)",
  "key": {"α1β2": {"molecular_target": "T1, α1β2 (Mus musculus, UniProt P62812+P63137)", "T1 construct": "gene Gabra1; full-length subunits in pRK5, co-expressed in HEK cells; heteropentamer without gamma", "T1 sequence (P62812 28-455)": "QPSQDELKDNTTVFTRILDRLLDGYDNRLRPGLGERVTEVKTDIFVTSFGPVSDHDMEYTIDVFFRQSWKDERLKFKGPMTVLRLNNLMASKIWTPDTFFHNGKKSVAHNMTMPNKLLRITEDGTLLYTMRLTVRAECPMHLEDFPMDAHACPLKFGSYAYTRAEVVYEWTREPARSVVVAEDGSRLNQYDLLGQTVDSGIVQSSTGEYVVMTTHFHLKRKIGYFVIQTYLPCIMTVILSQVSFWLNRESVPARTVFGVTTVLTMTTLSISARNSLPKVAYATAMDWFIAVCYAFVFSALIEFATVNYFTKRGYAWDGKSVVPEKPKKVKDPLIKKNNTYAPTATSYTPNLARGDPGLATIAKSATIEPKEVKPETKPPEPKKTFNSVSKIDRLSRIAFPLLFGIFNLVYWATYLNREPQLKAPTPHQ", "T1 sequence (P63137 26-512)": "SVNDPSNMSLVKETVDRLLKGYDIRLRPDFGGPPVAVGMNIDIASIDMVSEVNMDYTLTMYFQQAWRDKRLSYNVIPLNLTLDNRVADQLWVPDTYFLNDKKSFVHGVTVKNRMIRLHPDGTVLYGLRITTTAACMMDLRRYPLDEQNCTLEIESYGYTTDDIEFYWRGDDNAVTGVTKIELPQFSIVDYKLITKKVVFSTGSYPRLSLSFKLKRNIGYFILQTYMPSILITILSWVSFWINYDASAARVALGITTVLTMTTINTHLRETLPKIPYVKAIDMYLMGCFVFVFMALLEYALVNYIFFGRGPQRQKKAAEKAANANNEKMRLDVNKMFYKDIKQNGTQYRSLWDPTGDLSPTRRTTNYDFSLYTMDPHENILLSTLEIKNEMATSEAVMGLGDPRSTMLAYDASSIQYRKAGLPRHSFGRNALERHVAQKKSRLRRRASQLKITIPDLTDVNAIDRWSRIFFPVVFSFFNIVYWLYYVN", "assay": "whole-cell patch clamp, HEK cells", "type": "cell-based", "settings": "read-out: PS IC50", "source_text": "whole-cell patch clamp, HEK cells on α1β2"}, "α1β2γ2L [1]": {"molecular_target": "T2, α1β2γ2L (Mus musculus, UniProt P22723+P62812+P63137)", "T2 construct": "gene Gabra1; full-length subunits in pRK5, co-expressed 1:1:1 in HEK cells; heteropentamer; with Gamma-aminobutyric acid receptor subunit gamma-2", "T2 sequence (P62812 28-455)": "as the sequence (P62812 28-455) above", "T2 sequence (P63137 26-512)": "as the sequence (P63137 26-512) above", "T2 sequence (P22723 39-474)": "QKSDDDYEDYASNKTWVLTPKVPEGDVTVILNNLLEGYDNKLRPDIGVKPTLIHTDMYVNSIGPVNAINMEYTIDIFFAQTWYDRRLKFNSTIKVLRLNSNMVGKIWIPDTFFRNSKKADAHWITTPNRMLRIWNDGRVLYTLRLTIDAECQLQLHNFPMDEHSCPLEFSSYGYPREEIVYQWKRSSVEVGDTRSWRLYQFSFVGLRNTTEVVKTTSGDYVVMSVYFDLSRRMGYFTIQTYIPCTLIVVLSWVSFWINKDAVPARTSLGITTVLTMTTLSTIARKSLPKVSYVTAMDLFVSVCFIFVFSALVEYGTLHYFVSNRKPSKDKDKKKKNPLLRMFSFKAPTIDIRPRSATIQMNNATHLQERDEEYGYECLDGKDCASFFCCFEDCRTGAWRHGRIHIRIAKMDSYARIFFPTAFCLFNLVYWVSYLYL", "assay": "whole-cell patch clamp, HEK cells", "type": "cell-based", "settings": "read-out: PS IC50", "source_text": "whole-cell patch clamp, HEK cells on α1β2γ2L"}, "α4β2δ": {"molecular_target": "T3, α4β2δ (Mus musculus, UniProt P22933+P63137+Q9D6F4)", "T3 construct": "gene Gabra4; full-length subunits in pRK5, co-expressed in HEK cells; heteropentamer; with Gamma-aminobutyric acid receptor subunit delta", "T3 sequence (Q9D6F4 36-552)": "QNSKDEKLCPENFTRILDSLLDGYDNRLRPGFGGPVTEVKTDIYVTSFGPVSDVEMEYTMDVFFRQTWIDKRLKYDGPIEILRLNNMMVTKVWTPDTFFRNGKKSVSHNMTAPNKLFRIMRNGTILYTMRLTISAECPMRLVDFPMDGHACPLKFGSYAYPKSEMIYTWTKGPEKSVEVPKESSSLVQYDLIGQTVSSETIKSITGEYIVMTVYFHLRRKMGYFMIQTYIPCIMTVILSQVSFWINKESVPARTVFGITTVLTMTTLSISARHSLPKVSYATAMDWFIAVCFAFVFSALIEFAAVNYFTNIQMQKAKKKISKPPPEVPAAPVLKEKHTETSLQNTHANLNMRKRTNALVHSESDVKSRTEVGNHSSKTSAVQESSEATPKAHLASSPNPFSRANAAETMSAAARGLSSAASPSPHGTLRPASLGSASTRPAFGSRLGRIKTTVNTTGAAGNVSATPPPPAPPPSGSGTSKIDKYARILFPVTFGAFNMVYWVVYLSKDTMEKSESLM", "T3 sequence (P63137 26-512)": "as the sequence (P63137 26-512) above", "T3 sequence (P22933 25-449)": "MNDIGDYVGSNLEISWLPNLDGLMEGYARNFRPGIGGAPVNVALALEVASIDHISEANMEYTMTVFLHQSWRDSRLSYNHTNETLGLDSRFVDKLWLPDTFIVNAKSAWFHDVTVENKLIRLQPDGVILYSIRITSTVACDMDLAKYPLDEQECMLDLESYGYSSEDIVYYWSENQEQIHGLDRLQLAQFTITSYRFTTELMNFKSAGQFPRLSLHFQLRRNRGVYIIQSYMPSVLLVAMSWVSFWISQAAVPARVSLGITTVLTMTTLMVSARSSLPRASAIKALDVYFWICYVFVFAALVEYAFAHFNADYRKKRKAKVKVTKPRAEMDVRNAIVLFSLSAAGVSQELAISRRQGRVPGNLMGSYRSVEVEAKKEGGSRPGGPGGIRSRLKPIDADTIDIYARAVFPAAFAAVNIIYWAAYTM", "assay": "whole-cell patch clamp, HEK cells", "type": "cell-based", "settings": "read-out: PS IC50", "source_text": "whole-cell patch clamp, HEK cells on α4β2δ"}, "α3β2γ2L [2]": {"molecular_target": "T4, α3β2γ2L (Mus musculus, UniProt P22723+P26049+P63137)", "T4 construct": "gene Gabra3; full-length subunits in pRK5, co-expressed in HEK cells; heteropentamer; with Gamma-aminobutyric acid receptor subunit gamma-2", "T4 sequence (P26049 29-492)": "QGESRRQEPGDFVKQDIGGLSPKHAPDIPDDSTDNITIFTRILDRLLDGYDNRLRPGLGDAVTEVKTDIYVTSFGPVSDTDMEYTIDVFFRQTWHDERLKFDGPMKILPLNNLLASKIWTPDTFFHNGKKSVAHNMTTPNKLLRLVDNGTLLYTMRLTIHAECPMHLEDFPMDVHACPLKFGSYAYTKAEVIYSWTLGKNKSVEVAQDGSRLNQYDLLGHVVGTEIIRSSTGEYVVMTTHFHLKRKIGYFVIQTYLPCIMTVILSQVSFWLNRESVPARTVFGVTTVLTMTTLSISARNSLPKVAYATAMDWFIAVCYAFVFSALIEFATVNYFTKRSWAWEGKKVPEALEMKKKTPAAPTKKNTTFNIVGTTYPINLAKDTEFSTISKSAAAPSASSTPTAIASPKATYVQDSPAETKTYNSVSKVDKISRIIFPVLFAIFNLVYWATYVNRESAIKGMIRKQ", "T4 sequence (P63137 26-512)": "as the sequence (P63137 26-512) above", "T4 sequence (P22723 39-474)": "as the sequence (P22723 39-474) above", "assay": "whole-cell patch clamp, HEK cells", "type": "cell-based", "settings": "read-out: PS IC50", "source_text": "whole-cell patch clamp, HEK cells on α3β2γ2L"}, "α6β2δ [3]": {"molecular_target": "T5, α6β2δ (Mus musculus, UniProt P16305+P22933+P63137)", "T5 construct": "gene Gabra6; full-length subunits in pRK5, co-expressed in HEK cells; heteropentamer; with Gamma-aminobutyric acid receptor subunit delta", "T5 sequence (P16305 20-453)": "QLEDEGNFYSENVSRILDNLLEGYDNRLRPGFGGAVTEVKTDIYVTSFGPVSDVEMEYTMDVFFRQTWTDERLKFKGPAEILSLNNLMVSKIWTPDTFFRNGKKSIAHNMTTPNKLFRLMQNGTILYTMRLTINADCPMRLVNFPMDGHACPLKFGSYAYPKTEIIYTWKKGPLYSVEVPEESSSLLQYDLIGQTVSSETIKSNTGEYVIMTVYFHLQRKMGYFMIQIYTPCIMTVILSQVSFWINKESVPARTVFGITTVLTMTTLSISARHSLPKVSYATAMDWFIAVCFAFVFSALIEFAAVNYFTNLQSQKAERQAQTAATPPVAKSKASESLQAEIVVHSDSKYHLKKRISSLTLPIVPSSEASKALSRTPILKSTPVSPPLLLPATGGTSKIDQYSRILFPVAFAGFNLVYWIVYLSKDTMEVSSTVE", "T5 sequence (P63137 26-512)": "as the sequence (P63137 26-512) above", "T5 sequence (P22933 25-449)": "as the sequence (P22933 25-449) above", "assay": "whole-cell patch clamp, HEK cells", "type": "cell-based", "settings": "read-out: PS IC50", "source_text": "whole-cell patch clamp, HEK cells on α6β2δ"}, "β3 homomer": {"molecular_target": "T6, β3 homomer (Mus musculus, UniProt P63080)", "T6 construct": "gene Gabrb3; full-length subunit in pRK5, HEK cells; homopentamer", "T6 sequence (P63080 26-473)": "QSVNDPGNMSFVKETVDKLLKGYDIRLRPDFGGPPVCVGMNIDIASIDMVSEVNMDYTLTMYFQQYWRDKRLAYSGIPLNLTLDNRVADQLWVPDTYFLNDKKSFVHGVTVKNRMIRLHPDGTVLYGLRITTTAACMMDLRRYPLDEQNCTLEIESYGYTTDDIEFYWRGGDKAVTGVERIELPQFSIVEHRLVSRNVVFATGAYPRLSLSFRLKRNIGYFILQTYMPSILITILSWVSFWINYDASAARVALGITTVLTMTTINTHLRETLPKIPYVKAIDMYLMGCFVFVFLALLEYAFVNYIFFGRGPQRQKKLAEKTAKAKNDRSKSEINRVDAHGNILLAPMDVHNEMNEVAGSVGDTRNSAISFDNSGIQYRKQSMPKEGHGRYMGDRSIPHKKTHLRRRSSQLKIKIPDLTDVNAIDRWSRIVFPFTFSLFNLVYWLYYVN", "assay": "whole-cell patch clamp, HEK cells", "type": "cell-based", "settings": "100 μM PS co-applied with 500 μM pentobarbitone"}, "α1β2γ2L [4]": {"molecular_target": "T7, α1β2γ2L (Mus musculus, UniProt P22723+P62812+P63137, P62812:V283S)", "T7 construct": "gene Gabra1; full-length subunits in pRK5, co-expressed 1:1:1 in HEK cells; heteropentamer; with Gamma-aminobutyric acid receptor subunit gamma-2", "T7 sequence (P62812 28-455 V283S)": "as the sequence (P62812 28-455) above, with V256S counted along it", "T7 sequence (P63137 26-512)": "as the sequence (P63137 26-512) above", "T7 sequence (P22723 39-474)": "as the sequence (P22723 39-474) above", "assay": "whole-cell patch clamp, HEK cells", "type": "cell-based"}, "ρ1 [5]": {"molecular_target": "T8, ρ1 (Homo sapiens, UniProt P24046, P315V)", "T8 construct": "gene GABRR1; full-length subunit in pRK5, HEK cells; homopentamer", "T8 sequence (P24046 22-479 P315V)": "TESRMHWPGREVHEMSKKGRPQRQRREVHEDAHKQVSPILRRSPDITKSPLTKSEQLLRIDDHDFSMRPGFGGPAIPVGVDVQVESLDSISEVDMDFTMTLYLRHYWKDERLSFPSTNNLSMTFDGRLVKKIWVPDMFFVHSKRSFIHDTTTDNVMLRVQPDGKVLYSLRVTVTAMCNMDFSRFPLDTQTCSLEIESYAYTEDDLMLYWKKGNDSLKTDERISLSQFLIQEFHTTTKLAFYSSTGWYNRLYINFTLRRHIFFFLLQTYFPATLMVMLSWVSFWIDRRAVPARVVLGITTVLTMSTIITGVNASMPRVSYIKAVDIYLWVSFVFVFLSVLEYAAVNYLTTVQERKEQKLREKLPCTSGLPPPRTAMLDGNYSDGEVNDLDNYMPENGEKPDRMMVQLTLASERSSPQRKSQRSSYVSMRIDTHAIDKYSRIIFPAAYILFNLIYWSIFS", "assay": "whole-cell patch clamp, HEK cells", "type": "cell-based"}, "ρ1-260-γ2S": {"system": "T9, ρ1-260-γ2S", "T9 construct": "gene GABRR1; single-chain fusion: human rho1 ECD to residue 260, mouse gamma2S TMD; homopentamer in HEK cells", "assay": "whole-cell patch clamp, HEK cells", "type": "cell-based, Homo sapiens; Mus musculus", "settings": "co-applied with GABA EC80 (200 μM)"}, "ρ1 [6]": {"molecular_target": "T10, ρ1 (Homo sapiens, UniProt P24046)", "T10 construct": "gene GABRR1; full-length subunit in pRK5, HEK cells; homopentamer", "T10 sequence (P24046 22-479)": "as the sequence (P24046 22-479 P315V) above, with V294P counted along it", "assay": "whole-cell patch clamp, HEK cells", "type": "cell-based", "settings": "read-out: PS IC50", "source_text": "whole-cell patch clamp, HEK cells on ρ1"}, "α2β2γ2L": {"molecular_target": "T11, α2β2γ2L (Mus musculus, UniProt P22723+P26048+P63137)", "T11 construct": "gene Gabra2; full-length subunits in pRK5, co-expressed in HEK cells; heteropentamer; with Gamma-aminobutyric acid receptor subunit gamma-2", "assay": "whole-cell patch clamp, HEK cells", "type": "cell-based", "settings": "read-out: PS IC50", "source_text": "whole-cell patch clamp, HEK cells on α2β2γ2L"}, "α5β2γ2L": {"molecular_target": "T12, α5β2γ2L (Mus musculus, UniProt P22723+P63137+Q8BHJ7)", "T12 construct": "gene Gabra5; full-length subunits in pRK5, co-expressed in HEK cells; heteropentamer; with Gamma-aminobutyric acid receptor subunit gamma-2", "assay": "whole-cell patch clamp, HEK cells", "type": "cell-based", "settings": "read-out: PS IC50", "source_text": "whole-cell patch clamp, HEK cells on α5β2γ2L"}, "α1β3γ2L": {"molecular_target": "T13, α1β3γ2L (Mus musculus, UniProt P22723+P62812+P63080)", "T13 construct": "gene Gabra1; full-length subunits in pRK5, co-expressed in HEK cells; heteropentamer; with Gamma-aminobutyric acid receptor subunit gamma-2", "T13 sequence (P62812 28-455)": "as the sequence (P62812 28-455) above", "T13 sequence (P63080 26-473)": "as the sequence (P63080 26-473) above", "T13 sequence (P22723 39-474)": "as the sequence (P22723 39-474) above", "assay": "whole-cell patch clamp, HEK cells", "type": "cell-based", "settings": "read-out: PS IC50", "source_text": "whole-cell patch clamp, HEK cells on α1β3γ2L"}, "ρ1-260-α1": {"system": "T14, ρ1-260-α1", "T14 construct": "gene GABRR1; single-chain fusion: human rho1 ECD to residue 260 (start of M1), mouse alpha1 TMD with linkers; homopentamer in HEK cells", "assay": "whole-cell patch clamp, HEK cells", "type": "cell-based, Homo sapiens; Mus musculus", "settings": "steady-state current, co-applied with GABA EC80 (30 μM), pH 7.4, room temperature"}, "α1β2γ2L [7]": {"molecular_target": "T2, α1β2γ2L", "assay": "whole-cell patch clamp, HEK cells", "type": "cell-based", "settings": "GABA EC100 (1 mM), PTX pre-applied then co-applied; text calls it picrotoxin, reagent list picrotoxinin"}, "α3β2γ2L [8]": {"molecular_target": "T4, α3β2γ2L", "assay": "whole-cell patch clamp, HEK cells, Hill fit", "type": "cell-based", "source_text": "whole-cell patch clamp, HEK cells, Hill fit on α3β2γ2L"}, "α6β2δ [9]": {"molecular_target": "T5, α6β2δ", "assay": "whole-cell patch clamp, HEK cells, Hill fit", "type": "cell-based", "source_text": "whole-cell patch clamp, HEK cells, Hill fit on α6β2δ"}},
  "data": [
    {"compound": "CC(=O)[C@H]1CC[C@H]2[C@@H]3CC=C4C[C@@H](OS(=O)(=O)O)CC[C@]4(C)[C@H]3CC[C@]12C", "note": "[pregnenolone sulphate]", "values": [
      {"measurement": "IC50", "setting": "α1β2", "result": "1.3 ± 0.07", "unit": "µM"},
      {"measurement": "IC50", "setting": "α1β2γ2L [1]", "result": "0.4 ± 0.05", "unit": "µM"},
      {"measurement": "IC50", "setting": "α4β2δ", "result": "1.3 ± 0.1", "unit": "µM"},
      {"measurement": "IC50", "setting": "α3β2γ2L [2]", "result": "0.6 ± 0.05", "unit": "µM"},
      {"measurement": "IC50", "setting": "α6β2δ [3]", "result": "1.3 ± 0.1", "unit": "µM"},
      {"measurement": "whole-cell patch clamp, HEK cells", "setting": "β3 homomer", "result": "neurosteroid caused a concentration-dependent block of the PB-induced peak current"},
      {"measurement": "IC50", "setting": "α1β2γ2L [4]", "result": "35.5 ± 8.2", "unit": "µM"},
      {"measurement": "IC50", "setting": "ρ1 [5]", "result": "6 ± 0.6", "unit": "µM"},
      {"measurement": "% of control peak current at 100 μM PS", "setting": "ρ1-260-γ2S", "result": "39.2 ± 5.1", "unit": "%"},
      {"measurement": "IC50", "setting": "ρ1 [6]", "result": "> 300", "unit": "µM"},
      {"measurement": "IC50", "setting": "α2β2γ2L", "result": "0.4 ± 0.05", "unit": "µM"},
      {"measurement": "IC50", "setting": "α5β2γ2L", "result": "0.7 ± 0.1", "unit": "µM"},
      {"measurement": "IC50", "setting": "α1β3γ2L", "result": "1 ± 0.08", "unit": "µM"},
      {"measurement": "IC50", "setting": "ρ1-260-α1", "result": "7.9 ± 1.7", "unit": "µM"}
    ]},
    {"compound": "picrotoxinin", "values": [
      {"measurement": "% of control peak current at 10 μM PTX", "setting": "α1β2γ2L [7]", "result": "37.3 ± 8.1", "unit": "%"}
    ]},
    {"compound": "NCCCC(=O)O", "note": "[GABA]", "values": [
      {"measurement": "EC50", "setting": "α3β2γ2L [8]", "result": "64.6 ± 14.3", "unit": "µM"},
      {"measurement": "EC50", "setting": "α6β2δ [9]", "result": "0.2 ± 0.02", "unit": "µM"}
    ]}
  ]
}
